Data reported in patent US9107411B2, “Indolecarboxamides and benzimidazolecarboxamides as insecticides and acaricides” (BAYER INTELLECTUAL PROPERTY GMBH, priority 2011, dated 2015).

Legend:
Ctenocephalides felis = Ctenocephalides felis oral (CTECFE); type: in vivo; settings: application rate 100 ppm in citrated cattle blood; after 2 days
Description: Ctenocephalides felis Oral ([…]) Solvent: 1 part by weight of dimethyl sulphoxide For the purpose of preparing an appropriate active ingredient formulation, 10 mg of active ingredient are mixed with 0.5 ml of dimethyl sulphoxide. A portion of the concentrate is diluted with citrated cattle blood, and the desired concentration is prepared. About 20 unfed adult fleas (Ctenocephalides felis) are placed into a chamber which is closed at the top and bottom with gauze. A metal cylinder whose bottom end is closed with Parafilm is placed onto the chamber. The cylinder contains the blood/active ingredient formulation, which can be imbibed by the fleas through the Parafilm membrane. After 2 days, the kill in % is determined 100% means that all of the fleas have been killed; 0% means that none of the fleas have been killed.

adult Musca domestica = experiment: Musca domestica test (MUSCDO); type: in vivo; settings: application rate 100 ppm; treated sponge; after 2 days
Description: (§1) Musca domestica Test (MUSCDO) Solvent: dimethyl sulphoxide To prepare an appropriate active ingredient formulation, 10 mg of active ingredient are mixed with 0.5 ml of dimethyl sulphoxide and the concentrate is diluted with water to the desired concentration. Vessels containing a sponge treated with the active ingredient formulation of the desired concentration are populated with adult Musca domestica. After 2 days, the kill in % is determined 100% means that all of the flies have been killed; 0% means that none of the flies have been killed.

Phaedon cochleariae = experiment: Phaedon test (PHAECO spray treatment); type: in vivo; settings: Chinese cabbage leaf discs, after 7 days
Procedure, shortened: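 Chinese cabbage leaf discs were sprayed with compound in acetone/DMF with emulsifier, diluted in water to the test concentration. After drying, discs were infested with mustard beetle larvae. Efficacy in % was scored after 7 days, where 100% means all larvae were killed and 0% means none.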

Myzus persicae = experiment: Myzus test (MYZUPE spray treatment); type: in vivo; settings: Chinese cabbage leaf discs, after 6 days
Description: Myzus Test (MYZUPE Spray Treatment) Solvent: 78 parts by weight of acetone • • 1.5 parts by weight of dimethylformamide Emulsifier: 0.5 part by weight of alkylaryl polyglycol ether To produce an appropriate active ingredient formulation, 1 part by weight of active ingredient is mixed with the stated amounts of solvent and emulsifier, and the concentrate is diluted with emulsifier-containing water to the desired concentration. Leaf discs of Chinese cabbage (Brassica pekinensis) infested by all stages of the green peach aphid (Myzus persicae) are sprayed with an active ingredient formulation of the desired concentration. After 6 days, the efficacy in % is determined. 100% means that all of the aphids have been killed; 0% means that none of the aphids have been killed.

Lucilia cuprina larvae = experiment: Lucilia cuprina test (LUCICU); type: in vivo; settings: application rate 100 ppm; treated horse meat; after 2 days
Description: as §1, with “Lucilia cuprina” for “Musca domestica”, “(LUCICU)” for “(MUSCDO)”, “horse meat” for “a sponge”, “about 20 Lucilia cuprina larvae.” for “adult Musca domestica.”, “determined.” for “determined”, “larvae” for “flies”

Boophilus microplus = Boophilus microplus test (BOOPMI injection); type: in vivo; settings: application rate 20 μg/animal; injected into the abdomen; after 7 days
Description: Boophilus microplus Test (BOOPMI Injection) Solvent: dimethyl sulphoxide To prepare an appropriate active ingredient formulation, 10 mg of active ingredient are mixed with 0.5 ml of solvent and the concentrate is diluted with solvent to the desired concentration. The active ingredient solution is injected into the abdomen (Boophilus microplus), and the animals are transferred into dishes and stored in a climate-controlled room. After 7 days, the efficacy in % is determined. The activity is assessed by laying of fertile eggs. 100% means that none of the ticks has laid any fertile eggs.

logP (HPLC-MS) = type: physicochemical; settings: HPLC, reversed-phase column (C18), 43° C.
Spodoptera frugiperda = Spodoptera frugiperda test (SPODFR spray treatment); type: in vivo; settings: maize leaf discs, after 7 days
Procedure, shortened: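 Maize leaf discs sprayed with active ingredient formulated in acetone/dimethylformamide with emulsifier, diluted in emulsifier-containing water to the desired concentration. After drying, discs were populated with armyworm caterpillars. Efficacy (%) scored after 7 days: 100% all caterpillars killed, 0% none killed.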

Tetranychus urticae = experiment: Tetranychus test, OP-resistant (TETRUR spray treatment); type: in vivo; settings: bean leaf discs, after 6 days
Procedure, shortened: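 Bean leaf discs infested with all stages of OP-resistant T. urticae sprayed with compound formulated in acetone/DMF plus alkylaryl polyglycol ether emulsifier, diluted in water. Efficacy (% mites killed) scored after 6 days.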

[1] = acidic range pH 2.7, acetonitrile (0.1% formic acid)/water gradient, calibration with unbranched alkan-2-ones
[2] = acidic range pH 2.7, EEC directive 79/831 Annex V.A8, two values = both regioisomers (G = N)

Row | Compound | efficacy (kill in %) (Ctenocephalides felis) [%] | efficacy (kill in %) (adult Musca domestica) [%] | efficacy in % (Phaedon cochleariae; application rate 100 g/ha) [%] | efficacy in % (Myzus persicae; application rate 100 g/ha) [%] | efficacy (kill in %) (Lucilia cuprina larvae) [%] | efficacy (laying of fertile eggs) (Boophilus microplus) [%] | log p (logP (HPLC-MS); [1]) | efficacy in % (Spodoptera frugiperda; application rate 100 g/ha) [%] | efficacy in % (Tetranychus urticae; application rate 100 g/ha) [%] | efficacy in % (Phaedon cochleariae; application rate 500 g/ha) [%] | efficacy in % (Spodoptera frugiperda; application rate 500 g/ha) [%] | efficacy in % (Tetranychus urticae; application rate 500 g/ha) [%] | log p (logP (HPLC-MS); [2]) | efficacy in % (Myzus persicae; application rate 500 g/ha) [%]
1 | CCn1c(C(=O)NC(c2cccc(OC(F)F)c2)C(F)(F)F)cc2cc(C(=O)NC3CC3)c(Cl)cc21 (centres unmarked) [Compound 276] | 100 | 100 | 100 | 90 | 100 | 100 | 3.48 | 100 | 90 |  |  |  |  | 
2 | C#CCn1c(C(=O)NC(c2ccc(F)c(C(F)(F)F)c2)C(F)(F)F)nc2cc(C(=O)NC3CC3)c(Cl)cc21 (centres unmarked) [Compound 97] | 95 | 100 |  | 100 | 100 | 100 | 3.62 |  |  | 100 | 100 | 100 |  | 
3 | CCn1c(C(=O)NC(c2ccc(F)c(F)c2)C(F)(F)F)cc2cc(C(=O)NC3(C#N)CC3)c(Cl)cc21 (centres unmarked) [Compound 315] |  |  | 100 | 90 |  |  |  | 100 | 100 |  |  |  | 3.47 | 
4 | O=C(NC1CC1)c1cc2nc(C(=O)NC(c3cccc(Br)c3)C(F)(F)F)n(C3CC3)c2cc1Cl (centres unmarked) [Compound 314] |  |  | 100 | 90 |  |  |  | 100 | 90 |  |  |  | 3.43 | 
5 | O=C(NC1CC1)c1cc2nc(C(=O)NC(c3ccc(F)c(C(F)(F)F)c3)C(F)(F)F)n(C3CC3)c2cc1Br (centres unmarked) [Compound 300] |  |  |  | 100 |  |  |  |  |  | 100 | 100 | 100 | 3.59 | 
6 | CCn1c(C(=O)NC(c2ccc(F)c(Br)c2)C(F)(F)F)cc2cc(C(=O)NC3(C#N)CC3)c(C)cc21 (centres unmarked) [Compound 191] | 100 | 90 | 100 | 90 | 100 | 100 | 3.71 | 100 | 100 |  |  |  |  | 
7 | C#CCn1c(C(=O)NC(c2ccc(F)c(Cl)c2)C(F)(F)F)nc2cc(C(=O)NC3CC3)c(Cl)cc21 (centres unmarked) [Compound 101] |  |  | 100 | 80 |  |  | 3.50 | 100 | 80 |  |  |  |  | 
8 | CCn1c(C(=O)NC(c2cc(Cl)c(F)c(Cl)c2)C(F)(F)F)cc2cc(C(=O)NC3(C#N)CC3)c(Cl)cc21 (centres unmarked) [Compound 311] |  |  | 100 | 90 |  |  |  | 100 | 100 |  |  |  | 4.19 | 
9 | CCn1c(C(=O)NC(c2cccc(Br)c2)C(F)(F)F)cc2cc(C(=O)NC3CC3)c(Cl)cc21 (centres unmarked) [Compound 40] | 100 |  | 100 | 90 | 100 | 100 | 3.71 | 100 | 100 |  |  |  |  | 
10 | Cn1c(C(=O)NC(c2ccc(F)c(Cl)c2)C(F)(F)F)cc2cc(C(=O)NC3(C#N)CC3)c(Cl)cc21 (centres unmarked) [Compound 54] | 100 | 100 | 100 | 100 | 100 | 100 | 3.52 | 100 | 100 |  |  |  |  | 
11 | CCn1c(C(=O)NC(c2cc(Cl)c(F)c(Cl)c2)C(F)(F)F)cc2cc(C(=O)NC3(C#N)CC3)c(C)cc21 (centres unmarked) [Compound 290] |  |  | 100 |  |  |  |  | 100 | 100 |  |  |  | 4.13 | 100
12 | CCn1c(C(=O)NC(c2cc(Cl)c(Cl)c(Cl)c2)C(F)(F)F)cc2cc(C(=O)NC3(C#N)CC3)c(C)cc21 (centres unmarked) [Compound 289] |  |  | 100 |  |  |  |  | 100 | 100 |  |  |  | 4.43 | 100
13 | C=CCn1c(C(=O)NC(c2ccc(F)c(C(F)(F)F)c2)C(F)(F)F)nc2cc(C(=O)NC3CC3)c(Cl)cc21 (centres unmarked) [Compound 281] |  |  |  | 100 |  |  |  |  |  | 100 | 100 | 100 | 3.79 | 90
14 | CCn1c(C(=O)NC(c2ccc(F)c(F)c2)C(F)(F)F)cc2cc(C(=O)NC3CC3)c(C)cc21 (centres unmarked) [Compound 295] |  |  | 100 | 90 |  |  |  | 100 | 100 |  |  |  | 3.40 | 
15 | CCn1c(C(=O)NC(c2ccc(F)c(Cl)c2)C(F)(F)F)cc2cc(C(=O)NC3(C#N)CC3)c(C)cc21 (centres unmarked) [Compound 193] |  |  | 100 | 90 |  |  | 3.66 | 100 | 100 |  |  |  |  | 
16 | C#CCn1c(C(=O)NC(c2cccc(Cl)c2)C(F)(F)F)cc2cc(C(=O)NC3CC3)c(Cl)cc21 (centres unmarked) [Compound 5] |  |  |  |  |  |  | 3.45 |  |  | 100 | 100 | 100 |  | 90
17 | CCn1c(C(=O)NC(c2ccc(Cl)c(Cl)c2)C(F)(F)F)cc2cc(C(=O)NC3(C#N)CC3)c(Cl)cc21 (centres unmarked) [Compound 316] |  |  | 100 | 90 |  |  |  | 100 | 100 |  |  |  | 4.06 | 
18 | C=CCN(C(=O)c1cc2nc(C(=O)NC(c3ccc(F)c(Cl)c3)C(F)(F)F)n(CC=C)c2cc1Cl)C1CC1 (centres unmarked) [Compound 303] |  |  |  | 90 |  |  |  |  |  | 100 | 100 | 100 | 4.75 | 
19 | O=C(NC1CC1)c1cc2nc(C(=O)NC(c3ccc(F)c(C(F)(F)F)c3)C(F)(F)F)n(C3CC3)c2cc1Cl (centres unmarked) [Compound 313] |  |  |  |  |  |  |  |  |  | 100 | 100 | 90 | 3.38 | 90
20 | C#CCn1c(C(=O)NC(c2cccc(C(F)(F)F)c2)C(F)(F)F)cc2cc(C(=O)NC3(C#N)CC3)c(C)cc21 (centres unmarked) [Compound 209] |  |  | 100 | 90 |  |  | 3.48 | 100 | 100 |  |  |  |  | 
21 | CCn1c(C(=O)NC(c2cccc(C(F)(F)F)c2)C(F)(F)F)cc2cc(C(=O)NC3(C#N)CC3)c(C)cc21 (centres unmarked) [Compound 183] |  |  | 100 | 90 |  |  | 3.75 | 100 | 100 |  |  |  |  | 
